Test results taken from ChEMBL document CHEMBL1773045, “Conjugate (MTC-220) of muramyl dipeptide analogue and paclitaxel prevents both tumor growth and metastasis in mice” (J Med Chem, 2011).
Activity calls are given as the source filed them. The calls are words filed in the database; no cut-off is given here.

Experiments:
HCT-8 = assay: Cytotoxicity against human HCT8 cells after 72 hrs by MTT assay; assay type: functional, cell-based
SF-295 = assay: Growth inhibition of human SF295 cells after 48 hrs by sulforhodamine B assay; assay type: functional; conditions: SF-295, 48 h
Mus musculus [1] = assay: Antimetastatic activity against mouse 4T1 cells xenografted in BALB/c mouse assessed as reduction of TNFalpha mRNA expression in tumor at 5 mg/kg, ip qd for 23 days by RT-PCR analysis; assay type: functional, organism-based; parameters: dose 5 mg/kg
NCI-H1975 = assay: Antitumor activity against human NCI-H1975 cells xenografted in nu/nu BALB/c mouse assessed as tumor growth inhibition at 30 mg/kg, ip qd for 12 days measured on day 25 relative to control; assay type: functional; conditions: route intraperitoneal, read-out: GI
A2780 = assay: Cytotoxicity against human A2780 cells after 72 hrs by MTT assay; assay type: functional, cell-based
NCI-H460 = assay: Antitumor activity against human H460 cells xenografted in nu/nu BALB/c mouse assessed as tumor growth inhibition at 10 mg/kg, ip qd for 24 days measured on day 25 relative to control; assay type: functional; conditions: route intraperitoneal, read-out: GI
Mus musculus [2] = assay: Toxicity in ICR mouse assessed as mortality at 112.5 mg/kg, iv; assay type: organism-based; parameters: dose 112.5 mg/kg, route intravenous; conditions: in vivo
LOX IMVI = assay: Growth inhibition of human LOXIMVI cells after 48 hrs by sulforhodamine B assay; assay type: functional
HT-29 = assay: Growth inhibition of human HT-29 cells after 48 hrs by sulforhodamine B assay; assay type: functional; conditions: HT-29, 48 h
[3] = Antitumor activity against human ES2 cells xenografted in nu/nu BALB/c mouse assessed as tumor growth inhibition at 30 mg/kg, ip qd for 12 days measured on day 21 relative to control; assay type: functional; conditions: ES-2, ip, route intraperitoneal, read-out: GI

In the case of CC(=O)O[C@H]1C(=O)[C@@]2(C)[C@H]([C@H](OC(=O)c3ccccc3)[C@]3(O)C[C@H](OC(=O)[C@H](OC(=O)CCC(=O)NCCCC[C@H](NC(=O)CC[C@H](NC(=O)[C@H](C)NC(=O)/C=C/c4ccc(Cl)cc4)C(N)=O)C(N)=O)[C@H](NC(=O)c4ccccc4)c4ccccc4)C(C)=C1C3(C)C)[C@]1(OC(C)=O)CO[C@@H]1C[C@@H]2O, the Activity (HCT-8) is reported as “Active”, the GI50 (SF-295) is reported as less than 10 nM and the Activity (Mus musculus [1]) is reported as “Active”. The inhibition in vivo at 30 mg/kg (NCI-H1975) was 93.1%, the Activity (A2780) was “Active” and the inhibition in vivo at 10 mg/kg (NCI-H460) was 17.3%. For the same molecule, the Activity (Mus musculus [2]) was “Non-toxic”, the GI50 (LOX IMVI) was less than 10 nM and the GI50 (HT-29) was less than 10 nM. It also gave an inhibition in vivo at 30 mg/kg [3] of 36.4%.
